The target of one test is HLA-DRB1*09:01 (Homo sapiens, UniProt P01903+P01911, A100R/A103E/D57H/D86V/F55Y/F60I/F76Y/I96F/K127E/L162R/M171V/P40D/Q125H/Q99R/R33Q/R42F/S133A/S66N/T210M/V115G/W38K/Y107V/Y59G/Y89S). Description: HLA binding assay, DRB1*09:01.
A further test concerns the target T1, HLA-DRB1*15:01 (Homo sapiens, UniProt P01903+P01911).
T1 construct: purchased Benaroya Research Institute, Seattle, Washington
Description: biochemical. It counts as binding.

The target in the next test is T2, HLA-DRB1*03:01 (Homo sapiens, UniProt P01903+P01911, A100K/A102G/A103R/A169T/F55Y/I96L/K41T/L162R/M171V/P40S/Q125H/Q178H/Q39Y/R42S/S66N/T106N/T262R/W38E/Y61H).
T2 construct: purchased Benaroya Research Institute, Seattle, Washington
Description: HLA binding assay, DRB1*03:01.

Another test deals with HLA-DRB1*07:01 (Homo sapiens, UniProt P01903+P01911, A100R/A102G/A103Q/D57E/D86V/E43K/F76Y/K127E/L162R/M171V/P40G/Q125H/Q99D/R33Q/R42Y/R54Q/S133A/S66F/T210M/V115G/Y107V/Y59L/Y89S). Description: HLA binding assay, DRB1*07:01.
For a further test, the target named is T3, HLA-DRB1*04:01 (Homo sapiens, UniProt P01903+P01911, A100K/A169T/F76Y/I96L/K127E/L162R/M171V/N62H/P40V/Q125Y/R42H/S133A/S149N/S66Y/V115G/V209L/W38E).
T3 construct: purchased Benaroya Research Institute, Seattle, Washington
Description: HLA binding assay, DRB1*04:01.

A further test deals with HLA-DRB1*11:01 (Homo sapiens, UniProt P01903+P01911, A100R/A169T/A87E/I96F/K41T/L162R/M171V/P40S/Q125H/Q178H/Q39Y/Q99D/R42S/S66Y/T262R/V115G/W38E). Description: HLA binding assay, DRB1*11:01.
HLA-DRB1*11:01, sequence (P01903 26-254 limits assumed, other chains not shown): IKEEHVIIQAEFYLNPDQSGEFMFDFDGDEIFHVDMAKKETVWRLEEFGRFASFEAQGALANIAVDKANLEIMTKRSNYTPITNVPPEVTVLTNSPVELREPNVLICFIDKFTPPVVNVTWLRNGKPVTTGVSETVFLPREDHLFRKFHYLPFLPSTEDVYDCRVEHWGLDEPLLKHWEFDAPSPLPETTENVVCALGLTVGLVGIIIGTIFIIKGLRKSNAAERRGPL
The next test addresses T4, HLA-DRB1*01:01 (Homo sapiens, UniProt P01903+P01911, A100R/D57E/F55L/F60I/F76Y/I96L/L162R/M171V/P40L/Q125E/R42F/V115G/Y59C).
T4 construct: purchased Benaroya Research Institute, Seattle, Washington
Description: HLA binding assay, DRB1*01:01.

Another test has as its system human CD4+ T cells. The class given is cell-based.

Like-named read-outs stand apart in the source and are kept apart here. Where no end group is shown, it is not given here.

Take EKMVSLLSVLLSM [NSP7-289]: the IC50 was found to be 7790 nM at HLA-DRB1*09:01 (read-out: HLA-DRB1 (IC50) *0901); 200 nM on HLA-DRB1*15:01 (read-out: HLA-DRB1 (IC50) *1501); 31000 nM on HLA-DRB1*03:01 (read-out: HLA-DRB1 (IC50) *0301); 2680 nM at HLA-DRB1*07:01 (read-out: HLA-DRB1 (IC50) *0701); 28800 nM on HLA-DRB1*04:01 (read-out: HLA-DRB1 (IC50) *0401); 3240 nM on HLA-DRB1*11:01 (read-out: HLA-DRB1 (IC50) *1101). Also, on HLA-DRB1*01:01 (read-out: HLA-DRB1 (IC50) *0101), the concentration for half-maximal inhibition (IC50) is 270 nM.

For the substance KSTYRVVSVLTVLHQD-NH2 [Tregitope 289z], the half-maximal inhibitory concentration (IC50) on HLA-DRB1*09:01 is 220 nM; against HLA-DRB1*15:01, 2520 nM; at HLA-DRB1*03:01, 8990 nM; at HLA-DRB1*07:01, 200 nM; at HLA-DRB1*04:01 it was 650 nM; on HLA-DRB1*11:01 it was 480 nM. For the same substance, at HLA-DRB1*01:01, the IC50 is 160 nM.

As for “TT: TT (Astarte Biologics, cat no. 1002), stimulating antigen”, the “increase of CD4+ T cell proliferation by TT stimulation” value with human CD4+ T cells was “roughly 20 fold”.

As a reminder, the IC50 is the concentration that gives 50% inhibition.

The values above are taken from PMC10731459, “A SARS-CoV-2 NSP7 homolog of a Treg epitope suppresses CD4+ and CD8+ T cell memory responses” (Frontiers in Immunology, 2023).
